The target of this assay is T1, human GPR40 (Homo sapiens, UniProt O14842).
T1 construct: expressed in transfected cells
The assay can be described thus: GPR40 calcium flux assay, human GPR40. Type of assay: cell-based. To be noted: transfected HEK293 cells stably expressing human GPR40; multiple values = repeated testing; read-out: hGPR40 Ca^2+ Assay EC50. The method, then: Compounds were tested in a calcium flux assay using transfected HEK293 cells stably expressing either human GPR40 or rat GPR40. Human GPR40 expressing cells were cultured in DMEM-High Glucose media supplemented with 10% fetal bovine serum, 1×L-Glutamine, 1×Penicillin/Streptomycin and 500 μg/mL G418. Rat GPR40 expressing cells were cultured in DMEM-High Glucose media supplemented with 10% fetal bovine serum and 1 μg/mL puromycin. Cells were plated into poly-D-lysine coated 384-well plates and cultured overnight in a 37° C. humidified tissue culture incubator under 5% CO2/[…] atmosphere. On the day of the experiment, the culture media was replaced with assay buffer (HBSS, 20 mM HEPES, 0.1% BSA) and the cells incubated at 37° C. for 1 h. Calcium-sensitive fluorescent dye (Fluo 8 No-Wash Calcium Dye, ABD Bioquest) was then added and the cells incubated for another 30 min at 37° C. followed by 15 min at room temperature while protected from the light. The cell plate and a plate of diluted compounds of Formula (I) were loaded into a fluorescent plate reader that added compounds onto the cells while measuring the fluorescence intensity of each well. The plate reader recorded fluorescence intensity at 1 second intervals for 8 min and provided the data for analysis in an Excel format. EC50 values were calculated using Prism (GraphPad) software.
(A change in cytosolic calcium serves as a functional read-out for many receptors and channels.)

pEC50: −log10 of the molar value. Values joined by “and” are separate entries in the source; they are usually repeats but may differ in a detail not shown here. Identical values can stand only once.

Broadly, the pEC50 is the EC50 on a negative log10 scale, so that one unit is a factor of ten.

T1 sequence (O14842 whole entry): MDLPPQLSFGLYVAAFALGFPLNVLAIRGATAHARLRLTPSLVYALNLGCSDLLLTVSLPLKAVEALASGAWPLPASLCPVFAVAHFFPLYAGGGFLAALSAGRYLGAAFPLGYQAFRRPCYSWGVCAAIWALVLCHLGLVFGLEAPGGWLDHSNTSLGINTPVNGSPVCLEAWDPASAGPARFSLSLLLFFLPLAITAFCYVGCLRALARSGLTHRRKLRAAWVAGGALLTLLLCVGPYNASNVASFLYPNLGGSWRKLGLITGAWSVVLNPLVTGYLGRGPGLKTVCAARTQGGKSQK

Turning to `COc1ccc(F)c(-c2onc(COc3cccc([C@@H](CC(=O)O)C4CC4)c3)c2OCC2CC2)c1` [Cpd 41, (3S)-3-cyclopropyl-3-[3-[[4-(cyclopropylmethoxy)-5-(2-fluoro-5-methoxy-phenyl)isoxazol-3-yl]methoxy]phenyl]propanoic acid], the pEC50 is 7.85 and 7.92.
Turning to `COc1cccc(-c2scc(COc3cccc([C@@H](CC(=O)O)C4CC4)c3)c2C2=CCCC2(C)C)c1` [Cpd 26, (3S)-3-cyclopropyl-3-[3-[[4-(5,5-dimethylcyclopenten-1-yl)-5-(3-methoxyphenyl)-3-thienyl]methoxy]phenyl]propanoic acid], the pEC50 was 7.59 and 7.62.
Consider `COc1ccc(F)c(-c2onc(COc3cccc([C@@H](CC(=O)O)C4CC4)c3)c2OC2CC(C)(C)CC(C)(C)C2)c1` [Cpd 3, (3S)-3-cyclopropyl-3-[3-[[5-(2-fluoro-5-methoxy-phenyl)-4-(3,3,5,5-tetramethylcyclohexoxy)isoxazol-3-yl]methoxy]phenyl]propanoic acid], for which the pEC50 is 8.30.
On to `COc1cc(-c2onc(COc3cccc([C@@H](CC(=O)O)C4CC4)c3)c2CC(C)C)c(F)cn1` [Cpd 12, (3S)-3-cyclopropyl-3-[3-[[5-(5-fluoro-2-methoxy-4-pyridyl)-4-isobutyl-isoxazol-3-yl]methoxy]phenyl]propanoic acid], for which the pEC50 is 5.90.
To `COc1ccc(F)c(-c2scc(COc3cccc([C@@H](CC(=O)O)C4CC4)c3)c2C2CC2)c1` [Cpd 14, (3S)-3-cyclopropyl-3-[3-[[4-cyclopropyl-5-(2-fluoro-5-methoxy-phenyl)-3-thienyl]methoxy]phenyl]propanoic acid] belongs 6.97 and 7.05; to `COc1ccc(F)c(-c2onc(COc3cccc([C@@H](CC(=O)O)C4CC4)c3)c2OCCC(F)(F)F)c1` [Cpd 49, (3S)-3-cyclopropyl-3-[3-[[5-(2-fluoro-5-methoxy-phenyl)-4-(3,3,3-trifluoropropoxy)isoxazol-3-yl]methoxy]phenyl]propanoic acid], 7.17 and 7.25.
On to `COc1ccc(F)c(-c2scc(COc3cccc([C@@H](CC(=O)O)C4CC4)c3)c2C2=CCCC2(C)C)c1` [Cpd 13, (3S)-3-cyclopropyl-3-[3-[[4-(5,5-dimethylcyclopenten-1-yl)-5-(2-fluoro-5-methoxy-phenyl)-3-thienyl]methoxy]phenyl]propanoic acid], for which the pEC50 was 7.28 and 7.29 and 7.66 and 7.89 and 7.06 and 7.15.
Consider `COc1ccc(F)c(-c2onc(COc3cccc([C@@H](CC(=O)O)C4CC4)c3)c2-c2ccc(C(C)(C)C)s2)c1` [Cpd 45, (3S)-3-[3-[[4-(5-tert-butyl-2-thienyl)-5-(2-fluoro-5-methoxy-phenyl)isoxazol-3-yl]methoxy]phenyl]-3-cyclopropyl-propanoic acid], for which the pEC50 is 7.64 and 7.68.
`COc1ccc(F)c(-c2onc(COc3cccc([C@@H](CC(=O)O)C4CC4)c3)c2OC2CCC2)c1` [Cpd 43, (3S)-3-[3-[[4-(cyclobutoxy)-5-(2-fluoro-5-methoxy-phenyl)isoxazol-3-yl]methoxy]phenyl]-3-cyclopropyl-propanoic acid]: the negative logarithm of the EC50 (pEC50) was 7.96 and 8.05.
With `COc1cc(OC)cc(-c2scc(COc3cccc([C@@H](CC(=O)O)C4CC4)c3)c2C2=CCCC2(C)C)c1` [Cpd 23, (3S)-3-cyclopropyl-3-[3-[[5-(3,5-dimethoxyphenyl)-4-(5,5-dimethylcyclopenten-1-yl)-3-thienyl]methoxy]phenyl]propanoic acid], the negative logarithm of the EC50 (pEC50) is 7.80 and 7.82.
To `CCOc1c(COc2cccc([C@@H](CC(=O)O)C3CC3)c2)noc1-c1cc(OC)ncc1F` [Cpd 51, (3S)-3-cyclopropyl-3-[3-[[4-ethoxy-5-(5-fluoro-2-methoxy-4-pyridyl)isoxazol-3-yl]methoxy]phenyl]propanoic acid] belongs 6.74 and 6.85; to `COc1ccc(F)c(-c2snc(COc3cccc([C@@H](CC(=O)O)C4CC4)c3)c2C2=CCCC2(C)C)c1` [Cpd 30, (3S)-3-cyclopropyl-3-[3-[[4-(5,5-dimethylcyclopenten-1-yl)-5-(2-fluoro-5-methoxy-phenyl)isothiazol-3-yl]methoxy]phenyl]propanoic acid], 7.49 and 7.57.

For the origin of these results see patent US9920040B2, “GPR40 agonists for the treatment of type II diabetes” (Janssen Pharmaceutica NV, priority 2015, dated 2018).
